Calls of active or inactive are those of the source. No cut-off for these calls is given here.
Experiments:
BJ [1] = experiment: Induction of mitosis in transformed human BJ cells assessed as increase in pH3 Ser10 expression at 5 uM after 24 hrs by Western blot analysis relative to control; type: functional
BJ [2] = experiment: Induction of autophagy in transformed human BJ cells assessed as increase in LC3-2 to LC3-1 ratio at 5 uM after 24 hrs by Western blot analysis relative to control; type: functional
HCT-15 [3] = experiment: Anticancer activity against paclitaxel-resistant human HCT15 cells xenografted in BALB/c athymic mouse assessed as tumor growth inhibition at 40 mg/kg, ip administered twice a day for 12 days; type: functional, organism-based
HCT-15 [4] = experiment: Anticancer activity against paclitaxel-resistant human HCT15 cells xenografted in BALB/c athymic mouse assessed as cell death at 40 mg/kg, ip or 80 mg/kg, po administered twice a day for 12 days by TUNEL staining based assay; type: functional, organism-based
HCT-15 [5] = experiment: Anticancer activity against paclitaxel-resistant human HCT15 cells xenografted in BALB/c athymic mouse assessed as formation of misaligned chromosomes with multipolar spindles at 40 mg/kg, ip or 80 mg/kg, po administered twice a day for 12 days by immunohistochemical analysis; type: functional, organism-based
HCT-15 [6] = experiment: Anticancer activity against paclitaxel-resistant human HCT15 cells xenografted in BALB/c athymic mouse assessed as tumor growth inhibition at 20 mg/kg, ip administered twice a day for 12 days; type: functional, organism-based
HCT-15 [7] = experiment: Anticancer activity against paclitaxel-resistant human HCT15 cells xenografted in BALB/c athymic mouse assessed as tumor growth inhibition at 40 mg/kg, iv administered thrice every 4 days; type: functional, organism-based
HCT-15 [8] = experiment: Anticancer activity against paclitaxel-resistant human HCT15 cells xenografted in BALB/c athymic mouse assessed as tumor volume at 40 mg/kg, iv administered thrice every 4 days measured on day 1 (reference value: 110 +/- 11 mm3); type: functional
HCT-15 [9] = experiment: Anticancer activity against paclitaxel-resistant human HCT15 cells xenografted in BALB/c athymic mouse assessed as tumor volume at 40 mg/kg, iv administered thrice every 4 days measured on day 3 (reference value: 180 +/- 36 mm3); type: functional
HCT-15 [10] = experiment: Anticancer activity against paclitaxel-resistant human HCT15 cells xenografted in BALB/c athymic mouse assessed as tumor volume at 40 mg/kg, iv administered thrice every 4 days measured on day 5 (reference value: 329 +/- 45 mm3); type: functional
HCT-15 [11] = experiment: Anticancer activity against paclitaxel-resistant human HCT15 cells xenografted in BALB/c athymic mouse assessed as tumor volume at 40 mg/kg, iv administered thrice every 4 days measured on day 7 (reference value: 495 +/- 109 mm3); type: functional
HCT-15 [12] = experiment: Anticancer activity against paclitaxel-resistant human HCT15 cells xenografted in BALB/c athymic mouse assessed as tumor volume at 40 mg/kg, iv administered thrice every 4 days measured on day 9 (reference value: 546 +/- 87 mm3); type: functional
HCT-15 [13] = experiment: Anticancer activity against paclitaxel-resistant human HCT15 cells xenografted in BALB/c athymic mouse assessed as tumor volume at 40 mg/kg, iv administered thrice every 4 days measured on day 12 (reference value: 779 +/- 144 mm3); type: functional
[14] = Solubility of the compound in 10%DMSO/50%PEG400/40%H2O; type: physicochemical
HCT-15 [15] = experiment: Anticancer activity against paclitaxel-resistant human HCT15 cells xenografted in BALB/c athymic mouse assessed as tumor growth inhibition at 80 mg/kg, po administered twice a day for 12 days relative to control; type: functional; details: HCT-15, po, 288 h, read-out: TGI
HCT-15 [16] = experiment: Anticancer activity against paclitaxel-resistant human HCT15 cells xenografted in BALB/c athymic mouse assessed as tumor volume at 40 mg/kg, ip administered twice a day for 12 days measured on day 1 (reference value: 110 +/- 11 mm3); type: functional
HCT-15 [17] = experiment: Anticancer activity against paclitaxel-resistant human HCT15 cells xenografted in BALB/c athymic mouse assessed as tumor volume at 40 mg/kg, ip administered twice a day for 12 days measured on day 3 (reference value: 180 +/- 36 mm3); type: functional
HCT-15 [18] = experiment: Anticancer activity against paclitaxel-resistant human HCT15 cells xenografted in BALB/c athymic mouse assessed as tumor volume at 40 mg/kg, ip administered twice a day for 12 days measured on day 5 (reference value: 329 +/- 45 mm3); type: functional
HCT-15 [19] = experiment: Anticancer activity against paclitaxel-resistant human HCT15 cells xenografted in BALB/c athymic mouse assessed as tumor volume at 40 mg/kg, ip administered twice a day for 12 days measured on day 7 (reference value: 495 +/- 109 mm3); type: functional
HCT-15 [20] = experiment: Anticancer activity against paclitaxel-resistant human HCT15 cells xenografted in BALB/c athymic mouse assessed as tumor volume at 40 mg/kg, ip administered twice a day for 12 days measured on day 9 (reference value: 546 +/- 87 mm3); type: functional
HCT-15 [21] = experiment: Anticancer activity against paclitaxel-resistant human HCT15 cells xenografted in BALB/c athymic mouse assessed as tumor volume at 40 mg/kg, ip administered twice a day for 12 days measured on day 12 (reference value: 779 +/- 144 mm3); type: functional
HCT-15 [22] = experiment: Anticancer activity against paclitaxel-resistant human HCT15 cells xenografted in BALB/c athymic mouse assessed as tumor volume at 80 mg/kg, po administered twice a day for 12 days measured on day 1 (reference value: 110 +/- 11 mm3); type: functional
HCT-15 [23] = experiment: Anticancer activity against paclitaxel-resistant human HCT15 cells xenografted in BALB/c athymic mouse assessed as tumor volume at 80 mg/kg, po administered twice a day for 12 days measured on day 3 (reference value: 180 +/- 36 mm3); type: functional
HCT-15 [24] = experiment: Anticancer activity against paclitaxel-resistant human HCT15 cells xenografted in BALB/c athymic mouse assessed as tumor volume at 80 mg/kg, po administered twice a day for 12 days measured on day 5 (reference value: 329 +/- 45 mm3); type: functional
HCT-15 [25] = experiment: Anticancer activity against paclitaxel-resistant human HCT15 cells xenografted in BALB/c athymic mouse assessed as tumor volume at 80 mg/kg, po administered twice a day for 12 days measured on day 7 (reference value: 495 +/- 109 mm3); type: functional
HCT-15 [26] = experiment: Anticancer activity against paclitaxel-resistant human HCT15 cells xenografted in BALB/c athymic mouse assessed as tumor volume at 80 mg/kg, po administered twice a day for 12 days measured on day 9 (reference value: 546 +/- 87 mm3); type: functional
HCT-15 [27] = experiment: Anticancer activity against paclitaxel-resistant human HCT15 cells xenografted in BALB/c athymic mouse assessed as tumor volume at 80 mg/kg, po administered twice a day for 12 days measured on day 12 (reference value: 779 +/- 144 mm3); type: functional

For `CC(C)(C)OC(=O)NCCC(=O)n1cc(/C(C#N)=C/c2cccc3cnccc23)c2ccccc21`, which “fold change (FC)” value (BJ [1]) is on record?
The value was 4.8.

What about the “fold change (FC)” value (BJ [2]) of the same compound?
The value was 3.9.

Which results are given for `CN1CCN(C(=O)Cn2cc(/C(C#N)=C/c3cccc4cnccc34)c3ccccc32)CC1`?
fold change (FC) (BJ [1]): 1.3; fold change (FC) (BJ [2]): 1.9

Which TGI (HCT-15 [3]) does the source give for `CN1CCN(CC(=O)n2cc(/C(C#N)=C/c3cccc4cnccc34)c3ccccc32)CC1` here?
Its TGI is “Active”.

What about the Activity (HCT-15 [4]) of the same compound?
Its Activity is “Active”.

And the Activity (HCT-15 [5])?
The Activity was “Active”.

With `COCCOCC(=O)n1cc(/C(C#N)=C/c2cccc3cnccc23)c2ccccc21` as the compound, how does the “fold change (FC)” value (BJ [1]) read?
The value was 12.8.

And the “fold change (FC)” value (BJ [2])?
Its value is 4.1.

With `CC(C)(C)OC(=O)N1CCC(C(=O)n2cc(/C(C#N)=C/c3cccc4cnccc34)c3ccccc32)CC1` as the compound, how does the “fold change (FC)” value (BJ [1]) read?
Its value is 16.2.

And the “fold change (FC)” value (BJ [2])?
The value was 5.2.

Which “fold change (FC)” value (BJ [1]) does the source give for `N#C/C(=C\c1cccc2cnccc12)c1cn(C(=O)CCN)c2ccccc12` here?
Its value is 2.1.

What about the “fold change (FC)” value (BJ [2]) of the same compound?
Its value is 4.1.

With `N#C/C(=C\c1cccc2cnccc12)c1c[nH]c2ccccc12` as the compound, how does the TGI (HCT-15 [6]) read?
Its TGI is “Active”.

With `CC(=O)O[C@H]1C(=O)[C@@]2(C)[C@H]([C@H](OC(=O)c3ccccc3)[C@]3(O)C[C@H](OC(=O)[C@H](O)[C@@H](NC(=O)c4ccccc4)c4ccccc4)C(C)=C1C3(C)C)[C@]1(OC(C)=O)CO[C@@H]1C[C@@H]2O` [PACLITAXEL] as the compound, how does the TGI (HCT-15 [7]) read?
The TGI was “Active”.

What about the Activity (HCT-15 [8]) of the same compound?
Its Activity is 119 mm3.

What about the Activity (HCT-15 [9]) of the same compound?
Its Activity is 152 mm3.

And the Activity (HCT-15 [10])?
Its Activity is 288 mm3.

And the Activity (HCT-15 [11])?
Its Activity is 321 mm3.

And the Activity (HCT-15 [12])?
The Activity was 409 mm3.

And the Activity (HCT-15 [13])?
Its Activity is 638 mm3.

Which solubility [14] does the source give for `CN1CCN(CC(=O)n2cc(/C(C#N)=C/c3cccc4cnccc34)c3ccccc32)CC1.O=C(O)C(F)(F)F` here?
The solubility was 8000 µg/mL.

What about the inhibition in vivo at 80 mg/kg (HCT-15 [15]) of the same compound?
Its inhibition in vivo at 80 mg/kg is 75.8 to 76%.

And the Activity (HCT-15 [16])?
Its Activity is 100 mm3.

And the Activity (HCT-15 [17])?
The Activity was 109 mm3.

And the Activity (HCT-15 [18])?
The Activity was 199 mm3.

And the Activity (HCT-15 [19])?
Its Activity is 171 mm3.

What about the Activity (HCT-15 [20]) of the same compound?
The Activity was 196 mm3.

What about the Activity (HCT-15 [21]) of the same compound?
The Activity was 244 mm3.

And the Activity (HCT-15 [22])?
Its Activity is 96 mm3.

And the Activity (HCT-15 [23])?
Its Activity is 95 mm3.

What about the Activity (HCT-15 [24]) of the same compound?
The Activity was 143 mm3.

And the Activity (HCT-15 [25])?
Its Activity is 165 mm3.

And the Activity (HCT-15 [26])?
The Activity was 209 mm3.

What about the Activity (HCT-15 [27]) of the same compound?
The Activity was 258 mm3.

Reference: ChEMBL document CHEMBL4371026, “Prodrugs of the cancer cell selective anti-cancer agent (Z)-2-(1H-indol-3-yl)-3-(isoquinolin-5-yl)acrylonitrile (A131) are orally efficacious in a mouse model of resistant colon cancer” (Bioorg Med Chem Lett, 2019)
